Measurements from US6201001A, “Imidazole antiproliferative agents” (Abbott Laboratories, priority 1999, dated 2001).

Assays:
[1] = tested on: human lung large cell carcinoma, MDR negative (NCI-H460) cells; assay: 48-hour cellular proliferation assay, NCI-H460 cells (sulforhodamine); format: cell-based; conditions: NCI-H460, 48-hour
Procedure: (§1) Compounds of this invention were tested in a 48-hour cellular proliferation assay which uses human colon adenocarcinoma, MDR positive (HCT-15) cells, and human lung large cell carcinoma, MDR negative (NCI-H460) cells, in the 96-well microtitre format described in Skehan P., et al. New Colorimetric Cytotoxicity Assay for Anticancer Drug Screening. 1990, J. Natl. Cancer Inst. 82:1107-1112, hereby incorporated by reference. Briefly, the wells of a microtitre plate were charged sequentially with cultured cells and compounds of the invention (1.0×10^-4 to 1.0×10^-11 M in 10% DMSO prepared by dissolving compounds of the invention in DMSO and adding 11 μL of the DMSO solution to 100 μL of culture medium for a final DMSO concentration of 10%). Two of the following controls were also present in each microtitre plate: a solvent (DMSO) control without drug that yielded a 0% inhibition level and a trichloroacetic acid-treated well that yielded a 100% inhibition level. The cells were grown in culture (37° C., 5% CO2 atmosphere) for 48 hours then fixed by the addition of trichloroacetic acid. The wells were stained with sulforhodamine, washed with 1% acetic acid, and treated with 0.01M tris buffer (100 μL) to solubilize the adherent dye. The absorbance of the dye solution was measured with a Molecular Devices SpectraMax340 plate reader. The percent inhibition values were obtained by calculating the proportional response of the experimental values to the absorbance values of the controls.

[2] = tested on: human colon adenocarcinoma, MDR positive (HCT-15) cells; assay: 48-hour cellular proliferation assay, HCT-15 cells (sulforhodamine); format: cell-based; conditions: HCT-15, 48-hour
Procedure: as §1

Compound	IC50 [1] [nM]	IC50 [2] [nM]
COc1ccc(-c2c(-c3cc(OC)c(OC)c(OC)c3)ncn2C)cc1N [Example 1, 2-methoxy-5-(1-methyl-4-(3,4,5-trimethoxyphenyl)-1H-imidazol-5-yl)phenylamine]	170	220
COc1ccc(-c2ncn(C)c2-c2cc(OC)c(OC)c(OC)c2)cc1N [Example 2, 2-methoxy-5-(1-methyl-5-(3,4,5-trimethoxyphenyl)-1H-imidazol-4-yl)phenylamine]	34	79
COc1ccc(-c2c(-c3cc(OC)c(OC)c(OC)c3)ncn2C)cc1F [Example 3, 5-(3-fluoro-4-methoxyphenyl)-1-methyl-4-(3,4,5-trimethoxyphenyl)-1H-imidazole]	920	850
COc1cc(-c2ncn(C)c2-c2ccc(N(C)C)cc2)cc(OC)c1OC [Example 4, N,N-dimethyl-4-[1-methyl-4-(3,4,5-trimethoxyphenyl)-1H-imidazol-5-yl]aniline]	400	250
